According to patent US20150126609A1, “PHARMACEUTICAL COMPOSITION COMPRISING 11-DEOXY -PROSTAGLANDIN COMPOUND AND METHOD FOR STABILIZING THE COMPOUND” (R-TECH UENO, LTD., priority 2007, published 2015):

Tests used:
[1] = Stability of Compound 1 in vehicle stored at 55° C., amount determined by HPLC; type: physicochemical; conditions: for day 10, percentage based on the theoretical amount (250 μg/g): stored at 55° C.
Method: Compound 1 was dissolved in a vehicle shown in table 1 below to give 250 μg/g solution. Then, the solution was put in a hard grass container and heated at 55° C. The precise amount of Compound 1 in the solution was determined by means of HPLC (day 0). The container was kept at 55° C. for 10 days and after that the precise amount of the compound 1 was determined by means of HPLC (day 10).
The determination of the amount of the compound was carried out as follows. About 0.2 g of the sample was mixed with exactly 2 mL of internal standard solution and then with a dissolving agent shown in Table 1 to give 5 ml of sample solution. About 5 mg of the reference standard compound 1 was weighted precisely and added with acetonitrile to give exactly 50 mL solution. Exactly 1 ml of the solution was obtained and added with exactly 4 mL of the internal standard solution, and then added with the dissolving agent to give 10 mL of reference solution.
The fluorescent labeling agent was added to the respective solution, stirred and stood at room temperature for more than 30 minutes. After that, 2% acetic acid in acetonitrile was added to the solution, stirred and reacted at room temperature for more 30 minutes to give the sample and standard solutions. Then, the respective solution in an amount that theoretically gives 3.6 ng of compound 1 was loaded on the column and analyzed under the condition as follows:
(§1) Column: 5 mm×25 cm stainless steel column packed with octadecylsilane treated silica gel for HPLC (5 μm)
Mobile phase: mixture of acetonitrile (HPLC grade) and perchlorate buffer
(§2) Detector: spectrophotofluorometer
According to the same manner as described in Example 1, stability of the compound 1 in various vehicles was measured.

[2] = Stability of Compound 1 in soft gelatin capsules (sugar alcohol plasticizer) on storage, amount determined by HPLC; type: physicochemical
Method: Sugar alcohol solution derived from corn starch 60 parts by weight was added in an appropriate amount of water, stirred and heated. Then, gelatin 100 parts by weight was added thereto to give gelatin solution. Compound 1 was dissolved in medium chain fatty acid triglyceride (USP/NF grade) to give a liquid mixture containing 120 μg/g of compound 1. The gelatin solution and the liquid mixture were loaded on a soft capsule forming and filling machine to give capsule containing the liquid mixture, and dried to give soft gelatin capsule with an appropriate hardness.
The soft gelatin capsules obtained in the formulation example were kept at 40° C. for 6 months or at 55° C. for one month. After that, 20 capsules were swelled with purified water and ethyl acetate (HPLC grade) 10 ml was added thereto. The capsule was then cut opened and the liquid contained therein was obtained. 1 ml of the internal standard solution per 100 μg of theoretical amount of compound 1 was added to the liquid, and ethyl acetate (HPLC grade) was added so that the theoretical concentration of compound 1 was 10 μg/mL to give a sample solution.
On the other hand, about 0.025 g of standard Compound 1 was precisely weighted and added with ethyl acetate (HPLC grade) to give exactly 100 mL solution. 2 mL of the solution was measured, exactly 5 mL of the internal standard solution was added thereto and ethyl acetate (HPLC grade) was added so that the total amount was 50 mL to give the standard compound 1 solution.
The fluorescent labeling agent was added to the sample and standard solutions, stirred and reacted at room temperature.
The respective solution in an amount that theoretically gives 3.6 ng of compound 1 was loaded on the column and analyzed under the condition as follows: HPLC analysis condition:
as §1
Mobile phase: mixture of acetonitrile HPLC grade: methanol HPLC grade: ammonium acetate (0.05 mol/L)
as §2
The amount of the compound 1 in the sample solution was determined by using a one point calibration curve.

SMILES: CCCCC(F)(F)C(=O)CCC1CCC(=O)C1CCCCCCC(=O)O (stereo not shown) [Compound 1, 11-deoxy-13,14-dihydro-15-keto-16,16-difluoro PGE1]
- stability on admixing with a fatty acid ester ([1]; admixed with a fatty acid ester such as glyceride, 55° C., 10 days): significantly improved
- stability in polyol, sugar, sugar alcohol, polyethylene glycol, polysorbate 80 and fatty acid ([1]; in polyol such as glycerine, sugar, sugar alcohol, polyethylene glycol, polysorbate 80, and fatty acid, 55° C., 10 days): poor
- day 0, percentage based on the theoretical amount (250 μg/g) ([1]; no vehicle (compound 1 only), 55° C.): 95.4%
- day 10, percentage based on the theoretical amount (250 μg/g) ([1]; no vehicle (compound 1 only)): 82.8%
- day 0, percentage based on the theoretical amount (250 μg/g) ([1]; vehicle Macrogol 400 (polyethyleneglycol), 55° C.): 92.2%
- day 10, percentage based on the theoretical amount (250 μg/g) ([1]; vehicle Macrogol 400 (polyethyleneglycol)): 80.7%
- day 0, percentage based on the theoretical amount (250 μg/g) ([1]; vehicle concentrated glycerin, 55° C.): 20.9%
- day 10, percentage based on the theoretical amount (250 μg/g) ([1]; vehicle concentrated glycerin): 20.0%
- day 0, percentage based on the theoretical amount (250 μg/g) ([1]; vehicle corn oil, 250 μg/g solution, 55° C.): 93.1%
- day 10, percentage based on the theoretical amount (250 μg/g) ([1]; vehicle corn oil, 250 μg/g solution): 94.8%
- day 0, percentage based on the theoretical amount (250 μg/g) ([1]; vehicle glycerine fatty acid ester (Inwitor 742), 250 μg/g solution, 55° C.): 93.3%
- day 10, percentage based on the theoretical amount (250 μg/g) ([1]; vehicle glycerine fatty acid ester (Inwitor 742), 250 μg/g solution): 96.4%
- day 0, percentage based on the theoretical amount (250 μg/g) ([1]; vehicle hydrogenated maltose starch syrup, 55° C.): 5.1%
- day 10, percentage based on the theoretical amount (250 μg/g) ([1]; vehicle hydrogenated maltose starch syrup): 3.5%
- day 0, percentage based on the theoretical amount (250 μg/g) ([1]; vehicle isopropyl palmitate, 250 μg/g solution, 55° C.): 93.9%
- day 10, percentage based on the theoretical amount (250 μg/g) ([1]; vehicle isopropyl palmitate, 250 μg/g solution): 96.7%
- day 0, percentage based on the theoretical amount (250 μg/g) ([1]; vehicle medium chain fatty acid triglyceride (Miglyol 812N), 250 μg/g solution, 55° C.): 94.1%
- day 10, percentage based on the theoretical amount (250 μg/g) ([1]; vehicle medium chain fatty acid triglyceride (Miglyol 812N), 250 μg/g solution): 97.0%
- day 0, percentage based on the theoretical amount (250 μg/g) ([1]; vehicle oleic acid, 55° C.): 61.9%
- day 10, percentage based on the theoretical amount (250 μg/g) ([1]; vehicle oleic acid): 51.6%
- day 0, percentage based on the theoretical amount (250 μg/g) ([1]; vehicle polysorbate 80, 55° C.): 92.1%
- day 10, percentage based on the theoretical amount (250 μg/g) ([1]; vehicle polysorbate 80): 64.5%
- day 0, percentage based on the theoretical amount (250 μg/g) ([1]; vehicle propyleneglycol fatty acid ester (Rikemal PO-100V), 250 μg/g solution, 55° C.): 93.9%
- day 10, percentage based on the theoretical amount (250 μg/g) ([1]; vehicle propyleneglycol fatty acid ester (Rikemal PO-100V), 250 μg/g solution): 92.1%
- day 0, percentage based on the theoretical amount (250 μg/g) ([1]; vehicle soy oil, 250 μg/g solution, 55° C.): 98.2%
- day 10, percentage based on the theoretical amount (250 μg/g) ([1]; vehicle soy oil, 250 μg/g solution): 94.6%
- day 0, percentage based on the theoretical amount (250 μg/g) ([1]; vehicle sugar alcohol solution derived from corn starch, 55° C.): 3.8%
- day 10, percentage based on the theoretical amount (250 μg/g) ([1]; vehicle sugar alcohol solution derived from corn starch): 5.6%
- amounts of compound 1 (% vs day 0), Initial ([2]; soft gelatin capsule, gelatin 100 / sugar alcohol solution 60, 120 μg/g in medium chain fatty acid triglyceride, 40° C.): 100 % vs day 0
- amounts of compound 1 (% vs day 0), Initial ([2]; soft gelatin capsule, gelatin 100 / sugar alcohol solution 60, 120 μg/g in medium chain fatty acid triglyceride, 55° C.): 100 % vs day 0
- amounts of compound 1 (% vs day 0), 1 mo ([2]; soft gelatin capsule, gelatin 100 / sugar alcohol solution 60, 120 μg/g in medium chain fatty acid triglyceride, stored at 40° C., 1 mo): 99.8 % vs day 0
- amounts of compound 1 (% vs day 0), 3 mo ([2]; soft gelatin capsule, gelatin 100 / sugar alcohol solution 60, 120 μg/g in medium chain fatty acid triglyceride, stored at 40° C., 3 mo): 98.0 % vs day 0
- amounts of compound 1 (% vs day 0), 6 mo ([2]; soft gelatin capsule, gelatin 100 / sugar alcohol solution 60, 120 μg/g in medium chain fatty acid triglyceride, stored at 40° C., 6 mo): 98.8 % vs day 0
- amounts of compound 1 (% vs day 0), 1 w ([2]; soft gelatin capsule, gelatin 100 / sugar alcohol solution 60, 120 μg/g in medium chain fatty acid triglyceride, stored at 55° C., 1 w): 100.2 % vs day 0
- amounts of compound 1 (% vs day 0), 2 w ([2]; soft gelatin capsule, gelatin 100 / sugar alcohol solution 60, 120 μg/g in medium chain fatty acid triglyceride, stored at 55° C., 2 w): 100.1 % vs day 0
- amounts of compound 1 (% vs day 0), 4 w ([2]; soft gelatin capsule, gelatin 100 / sugar alcohol solution 60, 120 μg/g in medium chain fatty acid triglyceride, stored at 55° C., 4 w): 99.5 % vs day 0
- effect of sugar alcohol solution/polyol on stability when used as plasticizer ([2]; sugar alcohol solution/polyol used as plasticizer of soft gelatin capsule shell): will not affect the stability
